Test results taken from patent publication US12036212B2, “Enhancement of tumor response to chemotherapy by activation of the asmase/ceramide pathway through timed administration of a short-acting anti-angiogenic agent” (Memorial Sloan-Kettering Cancer Center, priority 2014, dated 2024).

Columns and labels:
[1] = tested on: MCA/129 fibrosarcomas; assay: Endothelial apoptosis in vivo (TUNEL/MECA-32) in MCA/129 fibrosarcomas; design: species or system mice; settings: gemcitabine 240 mg/kg
Protocol: Human HCT-116 colon cancer cells and MCA/129 murine sarcoma cells were maintained in DMEM with 10% fetal bovine serum, with 100 u/ml penicillin and 100 μg/ml streptomycin. Cells were grown as monolayers in 75 cm^2 culture flasks at 37° C. in 10% CO2 humidified incubators. Cells were trypsinized, washed in PBS and diluted in Matrigel/PBS solution (40:60 v/v) for HCT-116 xenografts or in PBS for MCA/129 syngeneic tumor grafts. Cells (3×10^6 for HCT-116 or 1×10^6 for MCA129) were injected subcutaneously into the flanks of mice (Garcia-Barros et al. Science 300, 1155-1159, 2003).
To evaluate acute endothelial apoptosis, tumors were grown in mice and treated with drugs as above. After the first treatment, tumors were harvested at specified times, placed into formalin overnight and paraffin-embedded the next day. Paraffin-embedded sections (5 μm) were co-stained for apoptotic endothelium using TUNEL and the endothelial-specific monoclonal antibody MECA-32 (Developmental Studies Hybridoma Bank, developed under the auspices of the NICHD and maintained by The University of Iowa, IA).
Similar results were observed using MCA/129 murine fibrosarcoma tumors implanted in Sv129/Bl6^asmase+/+ mice. […] After 4 hours of treatment, tumors were harvested and endothelial cell apoptosis quantified.

[2] = tested on: MCA/129 fibrosarcoma tumors; assay: IVIM MRI of vascular perfusion in MCA/129 fibrosarcoma tumors; format: in vivo, mouse; settings: gemcitabine 240 mg/kg i.p.
Source text: IVIM DW-MRI was first described by Le Bihan et al. (MR imaging of intravoxel incoherent motions: application to diffusion and perfusion in neurologic disorders. Radiology 1986; 161: 401-407). The novelty of our approach lies in repeatedly acquiring IVIM data over time (e.g. “dynamic” IVIM) to monitor the acute effects of radiation (or chemotherapy), a strategy which has not been previously reported. No intravenous contrast administration is required, and IVIM parameters can be measured many times, allowing us to define kinetics of vascular dysfunction after radiation or chemotherapy. Other alternatives, such as DCE-MRI or ^15O-PET, would not serve our purpose as well: although they may be highly reflective of tissue vascularity they cannot be re-injected into a patient to serially monitor changes in vascularity over time. IVIM parameters including perfusion fraction (f), pseudo-diffusion coefficient (D*) and diffusion coefficient (D) were calculated for each lesion, using a biexponential signal decay model and incorporating a correction to account for differences in the T1 and T2 relaxation times of tissue and blood, respectively.
Briefly, MCA/129 fibrosarcoma tumors were implanted in the rear mouse hip, and subjected to intravoxel incoherent motion (IVIM) MRI when tumors reached a size of 150-300 mm^3. […] Data (mean±SEM) are collated from 6 animals per group.

[3] = tested on: ASMase; assay: ASMase activity radioenzymatic assay in BAEC; format: cell-based, bovine
Protocol: BAEC were established from the intima of bovine aorta as described^1. Stock cultures were grown in 100-mm dishes in Dulbecco's modified Eagle's medium (DMEM) supplemented with glucose (1 g/liter), 5% heat-inactivated calf serum (CS), penicillin (50 units/ml), and streptomycin (50 μg/ml). Purified human recombinant bFGF (1 ng/ml; R&D Systems, Inc., Minneapolis, MN) was added every other day during the exponential growth phase. […] These plateau phase cells were either used for experiments, or further sub-cultured (up to a maximum of 10 times) at a split ratio of 1:8. For sub-culturing, monolayers were dissociated with STV (0.05% trypsin and 0.02% EDTA in PBS) for 2-3 min at 22° C., washed twice in 5% CS-DMEM, and resuspended in DMEM with supplements as above. These mild conditions of trypsinization were sufficient to detach cells but not injure, stimulate, or affect cell function in a detectable way. BAEC were maintained at 37° C. in 10% CO2 humidified incubators.
ASMase activity was quantified by radioenzymatic assay using [^14C-methylcholine]sphingomyelin (Amersham) as substrate as described (Schissel et al. J Biol Chem, 271, 18431-18436, 1996). Cell lysates were incubated with [^14C-methylcholine]-sphingomyelin substrate (0.026 mCi/9.5 nmol) in 250 mM sodium acetate, pH 5.0 supplemented with 0.1% Triton X-100 and 1 mM EDTA or 0.1 mM ZnCl. Reactions were terminated after 1 h with CHCl3:MeOH:1N HCl (100:100:1, v/v/v), and [^14C-methylcholine]phosphocholine product in the aqueous layer of the Folch extract was quantified using a Beckman Packard 2200 CA Tricarb scintillation counter. For detection of ASMase activity in patients, 10 μl of serum was used.
To test the effect of chemotherapy on ASMase signaling and ceramide production, BAEC were treated with paclitaxel (100 nM) and ASMase activity was determined by radioenzymatic assay (Rotolo et al, infra) using [^14C-methylcholine] sphingomyelin (Amersham) as substrate (FIG. 1A). Induction of ASMase activity was observed within 5 minutes after treatment, and the activation continued for 30 minutes. Ceramide generation was monitored using the diacylglycerol kinase assay (Stancevic et al. PLoS ONE 8, e69025, 2013). […] In further support of this, pre-incubation of BAEC with nystatin prior to treatment with chemotherapy inhibits chemotherapy-induced apoptosis (FIG. 3).
To determine the generality of the results observed, experiments were carried out using an additional endothelial cell line, human coronary artery endothelial cells (HCAEC); experiments were also performed using a different chemotherapeutic agent. […] Next, HCAEC were treated with paclitaxel (100 nM) (data not shown) and etoposide (50 μM) (FIG. 1F), and ceramide generation was evaluated.
To further establish the generality of ASMase activation by various chemotherapeutic agents, BAEC and HCAEC were treated with increasing doses of cisplatin (0.1-50 μM) (data not shown). […] The ASMase/ceramide pathway was activated by chemotherapeutic agents that belong to different classes of chemotherapeutic agents, such as: taxanes, topoisomerase inhibitors, and nucleoside analog metabolic inhibitors. Since such chemotherapy agents are characterized by distinct mechanisms of action in tumor cells, it is surprising that a group of such distinct agents converges on a common molecular (ASMase/ceramide) axis in endothelium. The present confirmation that distinct chemotherapeutic agents activate the ASMase/ceramide pathway permits the present inventors to take into account the results of experiments using single dose radiotherapy, which has been reported to activate the same pathway (Rao, S. S. et al., Axitinib sensitization of high Single Dose Radiotherapy. Radiotherapy and Oncology: Journal of the European Society for Therapeutic Radiology and Oncology 111, 88-93, doi:10.1016/j.radonc.2014.02.010 (2014)).
Gemcitabine was able to activate ASMase in cultured endothelial cells. […]

[4] = human, in vivo; cited from earlier work
[5] = tested on: advanced soft tissue sarcoma; assay: Phase II trial of gemcitabine and docetaxel with bevacizumab, volumetric tumor response; format: in vivo, human
Protocol: Patients with metastatic or locally-recurrent leiomyosarcoma, pleomorphic undifferentiated sarcoma, pleomorphic liposarcoma, rhabdomyosarcoma or angiosarcoma, were treated on a phase II trial of gemcitabine, docetaxel and bevacizumab. Initially the trial was a double-blind, placebo-controlled, randomized trial of gemcitabine and docetaxel with or without bevacizumab, which was modified to a single-arm, open-label, non-randomized study of gemcitabine, docetaxel and bevacizumab. The protocol was approved by the Institutional Review Board of Memorial-Sloan Kettering Cancer Center, and all patients provided written informed consent (Clinicaltrials.gov identifier NCT00887809).
Initially, gemcitabine was administered immediately following bevacizumab.
Volumetric measurement of tumors was performed on an exploratory basis as the original study was not designed or powered to specifically investigate the clinical application of timed anti-angiogenic therapy as a method of tumor chemosensitization. In light of the results from our animal studies, which were made part way through the clinical study period, volumetric measurements were proposed to more ideally facilitate comparison with our pre-clinical data. Furthermore, they likely provide a more meaningful assessment of tumor response than the RECIST based evaluation for soft tissue sarcoma. […] Baseline CT or MRI was used to identify a dominant target lesion for measurement. Follow-up scans were evaluated for best response. Tumor contours were defined manually and summed across all axial slices to calculate a total volume measurement. Tumor response was defined as at least a 30% reduction in tumor volume. Both a two-tailed Fisher's Exact Test and the Mann-Whitney Rank-Sum test were employed to evaluate significance in patient volumetric response rates at the first interval treatment scan (week 6) and at time of maximum treatment response.
Patients enrolled in the trial had metastatic or recurrent leiomyosarcoma, pleomorphic undifferentiated sarcoma, pleomorphic liposarcoma, rhabdomyosarcoma or angiosarcoma (FIG. 7A).
A total of 38 patients were treated. A subset of patients received placebo instead of bevacizumab. […] Baseline CT scan or MRI was used to identify a dominant target lesion for volumetric measurement, followed by volumetric assessment on initial post-treatment follow-up scan ([…]) and over the treatment course (representative CT time course of abdominal metastasis is shown in FIG. 7B showing regression of metastatic tumor).

Nc1ccn([C@@H]2O[C@H](CO)[C@@H](O)C2(F)F)c(=O)n1 [gemcitabine]
Endothelial cell apoptosis ([1]; Sv129/BL6 asmase+/+): induced time-dependent endothelial cell apoptosis
Tumor cell apoptosis [1]: did not cause tumor cell apoptosis
Time of peak vascularity and diffusion reduction after treatment [2]: 15 to 30 min
Diffusion (D*) ([2]; over 1 hour): reduced in a reversible manner
Vascularity (Fp) ([2]; over 1 hour): reduced in a reversible manner
ASMase activation ([3]; etoposide 50 μM, cisplatin 0.1-50 μM, gemcitabine 100 nM time-course): triggered rapid cellular activation of ASMase
Dose dependence of ASMase activation ([3]; increasing doses of gemcitabine, 5 minutes): dose-dependent manner

bevacizumab: monoclonal antibody that targets circulating VEGF A, long-acting AAA
Half-life (t1/2) [4]: 21 days
Patients with >30% tumor reduction, initial follow-up scan ([5]; after two 3-week cycles, bevacizumab-gemcitabine 1-hour interval, 14 patients): 64%
Patients with significant tumor response (≥30% reduction in tumor volume), initial follow-up scan ([5]; after two 3-week cycles, immediate consecutive bevacizumab-gemcitabine, 16 patients): 25%
Patients with significant tumor response, best response ([5]; bevacizumab 15 mg/kg 1 hour prior to gemcitabine, docetaxel day 8, 14 patients): 93%
Patients with significant tumor response (>30% reduction in tumor volume), best response ([5]; bevacizumab 15 mg/kg immediately before gemcitabine, docetaxel day 8, 16 patients): 38%
